Assay results as given in US12326385B2, “Cell-permeable fluorogenic fluorophores” (MAX-PLANCK-GESELLSCHAFT ZUR FÖRDERUNG DER WISSENSCHAFTEN E. …, priority 2018, dated 2025).
Marks after values point to notes of the source that are not given here.

Experiments:
F-actin = test: In vitro absorbance and fluorescence response on binding to actin; assay type: biochemical; conditions: for ε: general actin buffer; for F/F0: ± s.e.m.; for increase in absorbance / increase in fluorescence intensity: upon binding to F-actin, in vitro
F-actin in U2OS cells = test: No-wash live-cell imaging of F-actin; assay type: cell-based
Excerpt: Fluorescent probes for live-cell imaging of cytoskeletal structures have become important tools in the life sciences. In particular, the far-red, SiR-based probes for F-actin (SiR-actin) and microtubules (SiR-tubulin) have become popular as they are fluorogenic and enable no-wash imaging with little background signal. SiR-actin and SiR-tubulin are based on SiR linked to the F-actin-binder jasplakinolide and microtubule-binder docetaxel, respectively. Binding to their targets shifts for both probes the equilibrium between the cell-permeable spirolactone and the fluorescent zwitterion towards the fluorescent form. To generate fluorescent stains for F-actin and microtubule in different colors, the inventors coupled jasplakinolide and docetaxel to 6-TAMRA and its N,N-dimethylsulfamide derivative (probes 169 and 172, named MaP555-actin and MaP555-tubulin in the following). […] The specificity of MaP555-actin and MaP555-tubulin was further confirmed by co-staining with SiR-actin and SiR-tubulin. […] Similarly, binding of MaP555-tubulin to microtubules caused a high increase in absorbance (5.8-fold) and fluorescence (11-fold).
In addition, the inventors coupled the acyl sulfonamide of carbopyronine to jasplakinolide, yielding the actin probe MaP618-actin (171).

[1] = 0.2% SDS in general actin buffer
[2] = MaP618-actin, orange fluorescence

Structure (SMILES)	Φ (F-actin; [1])	ε^SDS (F-actin; [1])	Φ (F-actin; binding with actin)	ε^protein (F-actin; binding with actin)	λabs (F-actin; binding with actin)	λem (F-actin; binding with actin)	ε (F-actin)	F/F0 (F-actin; ratio of fluorescence intensities at 580 nm in the presence and absence of actin)	increase in absorbance (F-actin) [fold]	increase in fluorescence intensity (F-actin) [fold]	live-cell staining of F-actin (F-actin in U2OS cells)	λem (F-actin; [2]) [nm]	λex (F-actin; [2]) [nm]	fluorogenicity relative to SiR-actin (F-actin; incubation with F-actin)	F/F0 (F-actin; ratio of fluorescence intensities at 635 nm in the presence and absence of actin)
C/C1=C\CC[C@H](C)OC(=O)C[C@H](c2ccc(O)cc2)NC(=O)[C@@H](Cc2c[nH]c3ccccc23)N(C)C(=O)[C@H](CCCCNC(=O)CCCCCNC(=O)c2ccc3c(c2)C2(c4ccc(N(C)C)cc4Oc4cc(N(C)C)ccc42)N(S(=O)(=O)N(C)C)C3=O)NC(=O)[C@@H](C)C1 [compound 169]	0.49	103,000 M^−1cm^−1	0.57	95,000 M^−1cm^−1	558	580	3,600 M^−1cm^−1	107 ± 9.6^m	26	107	enabled no-wash, high-contrast staining	–	–	–	–
C/C1=C\CC[C@H](C)OC(=O)C[C@H](c2ccc(O)cc2)NC(=O)[C@@H](Cc2c[nH]c3ccccc23)N(C)C(=O)[C@H](CCCCNC(=O)CCCCCNC(=O)c2ccc3c(c2)C2(c4ccc(N(C)C)cc4C(C)(C)c4cc(N(C)C)ccc42)N(S(C)(=O)=O)C3=O)NC(=O)[C@@H](C)C1 [compound 171]	0.71	24,000^i M^−1cm^−1	0.78	61,000 M^−1cm^−1	618	635	500 M⁻¹ cm⁻¹	–	122	449	clearly reveal F-actin structures	635	618	about four times more fluorogenic	449 ± 6.8^j
